{"source": "patent US20260209200A1", "about": "“SALTS OF A DIHYDROOROTATE DEHYDROGENASE (DHOD) INHIBITOR” (priority 2022, published 2026)", "key": {"in vivo [1]": {"assay": "in vivo", "details": "rat, in vivo, po", "procedure": "(§1) Suspensions were stirred continuously prior to dose.\nA total of 27 male SD rats were used (n=3). 27 male SD rats assigned to the study were divided into 9 groups and a single type of formulated PP-001 salt was orally administered to each group of rats at dose level of 4 mg/kg (2 mL/kg dose volume). The diet was provided ad libitum throughout the in-life portion of the study, except for the fasting prior to dosing through 4 hours post dose. Drinking water was available daily ad libitum to all animals.\n(§2) Plasma samples were collected via the jugular vein cannulation into EDTA-K3 tubes at 0.25, 0.5, 1, 2, 4, 8, and 24 hours post-dose administration. For analytical batch of single oral administration, plasma concentrations of salts of PP-001 were determined using LC-MS/MS with a lower limit of quantitation of 1 ng/mL.\n(§3) The pharmacokinetic parameters of PP-001 salts were determined by non-compartmental analysis using WinNonlin Version 8.0 (Pharsight, Mountain View, CA). The area under the curve from the time of dosing to the last measurable concentration, AUC0-t, was calculated by the linear trapezoidal rule. The area under the concentration-time curve extrapolated to infinity, AUCinf, was calculated using a regression of the natural logarithm of the concentration values versus sampling time of the terminal slope (Lambda Z, k). This value is also used to calculate half-life (T1/2) as follows:\n(§4) The bioavailability was calculated as follows:\n(§5) [formula] • wherein PO is an oral administration and IV is an intravenous injection."}, "in vivo [2]": {"assay": "in vivo", "details": "dog", "procedure": "as §1\nA total of 6 male beagle dogs were used (n=3). 6 male dogs assigned to the study were divided into 2 periods with 6 dogs per period and two dosing cycles separated by a 7-day washout period. The diet was provided ad libitum throughout the in-life portion of the study, except for the fasting prior to dosing through 4 hours post dose. Drinking water was available daily ad libitum to all animals. Formulated PP-001 salts were administered to male beagle dogs by oral administration at 4 mg/kg with dosed volume at 2 mL/kg.\nas §2, with “of 10” for “of 1”\nas §3, §4, §5"}, "[3]": {"assay": "Solubility of PP-001 free acid in supernatant of 10 mg/mL formulation in FaSSIF", "type": "physicochemical", "details": "supernatant of 10 mg/mL formulation at 25° C. in FaSSIF after 120 min"}, "[4]": {"assay": "Kinetic solubility of PP-001 salts in FaSSIF (HPLC)", "type": "physicochemical", "details": "4 mL FaSSIF, 25° C., target 2 mg/mL", "procedure": "Approximately 8 mg (calculated as freebase) of each salt was weighed out into each glass vial and then 4 ml of FaSSIF was added (target concentration was 2 mg/mL). The sample was kept stirring on a magnetic stirrer at a speed of I 00 RPM under 25° C. Then at the time points of initial, 0.5 hr, 1 hr, 2 hrs and 24 hrs, 0.5 mL of sample solution was transferred into 1.5 mL centrifugation tube and centrifuged at 12,000 RPM for 10 min. The supernatant was diluted by 50% ACN suitable and analyzed by HPLC.\nAn HPLC method of testing solubility was performed as follows in Table A: […]"}, "[5]": {"assay": "Thermodynamic (equilibrium) solubility of PP-001 salts in FaSSIF", "type": "physicochemical", "procedure": "As the solid was completely dissolved, add more sample to keep it saturated. […] Then at the time point 2 hrs, 0.5 mL of sample solution was transferred into 1.5 mL centrifugation tube and centrifuged at 12,000 RPM for 10 min. The supernatant was diluted by 50% ACN suitable and analyzed by HPLC. The pH was tested after 24 hours."}}, "data": [{"compound": "O=C(Nc1c(F)c(F)c(-c2cccc(OC(F)(F)F)c2)c(F)c1F)c1ccsc1C(=O)O", "note": "[PP-001 free acid, 3-(2,3,5,6-tetrafluoro-3′-trifluoromethoxy-biphenyl-4-ylcarbamoyl)-thiophene-2-carboxylic acid]", "values": [{"measurement": "Increase in oral BA vs free acid in rats", "setting": "in vivo [1]; male, SD", "value": 1}, {"measurement": "bioavailability", "setting": "in vivo [1]; male, SD, 4 mg/kg", "value": 7.8, "unit": "%"}, {"measurement": "Increase in oral BA vs free acid in dogs", "setting": "in vivo [2]; male, beagle", "value": 1}, {"measurement": "bioavailability", "setting": "in vivo [2]; male, beagle, po, 4 mg/kg", "value": 23, "unit": "%"}, {"measurement": "solubility at 120 min", "setting": "[3]", "value": 1200, "unit": "µg/mL"}]}, {"compound": "[K+]", "note": "[Potassium]", "values": [{"measurement": "Increase in oral BA vs free acid in rats", "setting": "in vivo [1]", "value": 0.7}, {"measurement": "AUC0-∞", "setting": "in vivo [1]; 4 mg/kg", "value": 10112, "unit": "ng·h/mL"}, {"measurement": "AUCExtr", "setting": "in vivo [1]; 4 mg/kg", "value": 0.525, "unit": "%"}, {"measurement": "AUCinf/D", "setting": "in vivo [1]; 4 mg/kg", "value": 2528, "unit": "kg·ng·h/mL/mg"}, {"measurement": "AUClast", "setting": "in vivo [1]; 4 mg/kg", "value": 10049, "unit": "ng·h/mL"}, {"measurement": "Cmax", "setting": "in vivo [1]; 4 mg/kg", "value": 1144, "unit": "ng/mL"}, {"measurement": "F, bioavailability (BA) in rats", "setting": "in vivo [1]; 4 mg/kg", "value": 5.8, "unit": "%"}, {"measurement": "MRT0-∞", "setting": "in vivo [1]; 4 mg/kg", "value": 5.31, "unit": "h"}, {"measurement": "Tmax", "setting": "in vivo [1]; 4 mg/kg", "value": 4.00, "unit": "h"}, {"measurement": "T1/2", "setting": "in vivo [1]; 4 mg/kg, pH 6.8", "value": 2.96, "unit": "h"}, {"measurement": "Increase in oral BA vs free acid in dogs", "setting": "in vivo [2]", "value": 4.0}, {"measurement": "Increased bioavailability in dogs vs PP-001 free acid", "setting": "in vivo [2]; po", "value": "> 400", "unit": "% increase"}, {"measurement": "AUC0-∞", "setting": "in vivo [2]; po, 4 mg/kg", "value": 180263, "unit": "ng·h/mL"}, {"measurement": "AUCExtr", "setting": "in vivo [2]; po, 4 mg/kg", "value": 1.59, "unit": "%"}, {"measurement": "AUCinf/D", "setting": "in vivo [2]; po, 4 mg/kg", "value": 45066, "unit": "kg·ng·h/mL/mg"}, {"measurement": "AUClast", "setting": "in vivo [2]; po, 4 mg/kg", "value": 177228, "unit": "ng·h/mL"}, {"measurement": "Cmax", "setting": "in vivo [2]; po, 4 mg/kg", "value": 33967, "unit": "ng/mL"}, {"measurement": "MRT0-∞", "setting": "in vivo [2]; po, 4 mg/kg", "value": 4.34, "unit": "h"}, {"measurement": "T1/2", "setting": "in vivo [2]; po, 4 mg/kg", "value": 4.15, "unit": "h"}, {"measurement": "Tmax", "setting": "in vivo [2]; po, 4 mg/kg", "value": 1.17, "unit": "h"}, {"measurement": "Appearance after stirring for 24 hours", "setting": "[4]", "value": "clear solution"}, {"measurement": "Final pH", "setting": "[4]", "value": 6.50}, {"measurement": "Solubility at different time points, 0.5 h", "setting": "[4]; 0.5 h", "value": 1700, "unit": "µg/mL"}, {"measurement": "Solubility at different time points, 1 h", "setting": "[4]; 1 h", "value": 2180, "unit": "µg/mL"}, {"measurement": "Solubility at different time points, 2 h", "setting": "[4]; 2 h", "value": 2190, "unit": "µg/mL"}, {"measurement": "Solubility at different time points, 24 h", "setting": "[4]; 24 h", "value": 2260, "unit": "µg/mL"}, {"measurement": "Solubility at different time points, Initial", "setting": "[4]; initial", "value": 490, "unit": "µg/mL"}, {"measurement": "Appearance after stirring for 24 hours", "setting": "[5]; 3 mL FaSSIF, 37° C., saturated", "value": "Suspension"}, {"measurement": "Thermodynamic solubility", "setting": "[5]; 3 mL FaSSIF, 37° C., saturated (target 10 mg/mL), time point 2 hrs, pH 6.4 to 6.5", "value": 2340, "unit": "µg/mL"}, {"measurement": "Increased solubility vs PP-001 free acid", "setting": "[5]; FaSSIF, comparison from Table 6", "value": "> 100", "unit": "% increase"}]}]}
